Our source for the IC50 values is US20250313563A1, “GLYCOGEN SYNTHASE KINASE 3 INHIBITORS AND USES THEREOF” (The Broad Institute, Inc., priority 2022, published 2025).

Read-outs that look alike come from different tables or passages of the source.

For experiment [1], the target named is GSK3b (GST-full length GSK3b) (Homo sapiens (Human), UniProt P49841). Kind of experiment: GSK3b TR-FRET kinase assay. The class given is biochemical. The method in brief:
(§1)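 Compound was preincubated 30 min with 1 nM GST-GSK3 enzyme. Reaction ran 100 min at ambient temperature in Tris pH 7.5/MgCl2 with 200 nM biotinylated pS645-glycogen synthase 631-650 peptide and ATP (4 μM GSK3α, 2 μM GSK3b, or 1 mM). The EDTA-stopped reaction was read by TR-FRET (Tb-anti-pSer641/streptavidin-d2), and IC50s were fitted.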

Experiment [2] addresses GSK3α (GST-full length GSK3α) (Homo sapiens (Human), UniProt P49840). Description: GSK3α TR-FRET kinase assay. It is filed as biochemical. The method in brief: as §1
For orientation: In TR-FRET formats the signal depends on donor and acceptor labels being close together.

Where [3] appears, read: 1 nM GSK3b, 2 μM ATP, 30 minute preincubation, geometric mean, read-out: GSK3-B TR-FRET BIOCHEMICAL (TR-FRET), GMean, IC50.
[4] abbreviates: read-out: GSK3-B (TR-FRET 1 mM ATP), GMean, IC50, 1 mM ATP, geometric mean.
Setting [5] is: 1 nM GSK3α, 4 μM ATP, 30 minute preincubation, geometric mean, read-out: GSK3-A TR-FRET BIOCHEMICAL (TR-FRET), GMean, IC50.
[6] abbreviates: read-out: GSK3-A (TR-FRET 1 mM ATP), GMean, IC50, 1 mM ATP, geometric mean.
Setting [7] is: 1 nM GSK3b, 2 μM ATP, 30 minute preincubation, Table 16, read-out: GSK3-B TR-FRET BIOCHEMICAL (TR-FRET).
[8] abbreviates: 1 nM GSK3α, 4 μM ATP, 30 minute preincubation, Table 16, read-out: GSK3-A TR-FRET BIOCHEMICAL (TR-FRET).

Sequence of GSK3α (GST-full length GSK3α) (P49840 whole entry): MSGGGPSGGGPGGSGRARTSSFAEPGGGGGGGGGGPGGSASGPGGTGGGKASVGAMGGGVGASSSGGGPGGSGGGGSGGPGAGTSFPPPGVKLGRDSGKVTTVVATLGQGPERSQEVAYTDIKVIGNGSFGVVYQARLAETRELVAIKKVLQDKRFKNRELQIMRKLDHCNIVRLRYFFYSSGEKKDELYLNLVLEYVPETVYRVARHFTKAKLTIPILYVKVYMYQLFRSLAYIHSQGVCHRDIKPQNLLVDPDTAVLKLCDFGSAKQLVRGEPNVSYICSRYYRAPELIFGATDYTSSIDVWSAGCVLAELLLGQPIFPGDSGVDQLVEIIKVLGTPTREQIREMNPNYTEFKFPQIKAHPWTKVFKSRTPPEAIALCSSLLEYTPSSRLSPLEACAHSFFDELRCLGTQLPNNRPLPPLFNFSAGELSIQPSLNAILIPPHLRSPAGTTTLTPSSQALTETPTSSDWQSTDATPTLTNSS
Sequence of GSK3b (GST-full length GSK3b) (P49841 whole entry): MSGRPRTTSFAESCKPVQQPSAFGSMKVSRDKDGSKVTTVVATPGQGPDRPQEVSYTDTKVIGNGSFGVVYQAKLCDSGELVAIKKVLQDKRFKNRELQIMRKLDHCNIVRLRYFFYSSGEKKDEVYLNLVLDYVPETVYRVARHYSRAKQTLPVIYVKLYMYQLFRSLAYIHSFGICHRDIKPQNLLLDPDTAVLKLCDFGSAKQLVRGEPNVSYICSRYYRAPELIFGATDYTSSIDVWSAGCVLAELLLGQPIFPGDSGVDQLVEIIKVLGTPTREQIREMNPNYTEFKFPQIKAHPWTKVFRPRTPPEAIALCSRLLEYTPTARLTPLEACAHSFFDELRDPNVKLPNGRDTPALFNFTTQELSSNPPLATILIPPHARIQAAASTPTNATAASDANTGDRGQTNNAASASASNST

For `CC[C@]1(c2cccc(-c3ccncc3F)c2)C2=C(CC(C)(C)NC2=O)Nc2n[nH]cc21` [Compound 947869], the IC50 in experiment [1] (setting [3]) is no more than 100 nM; in experiment [1] (setting [4]) it was 1000 to 5000 nM; in experiment [2] (setting [5]), no more than 100 nM; in experiment [2] (setting [6]), no more than 100 nM.

For the molecule `CCC1(c2cccc(S(=O)(=O)C(C)C)c2)C2=C(CC(C)(C)NC2=O)Nc2[nH]nc(C)c21` (centres unmarked) [Compound 947870], the IC50 is 100 to 1000 nM in experiment [1] (setting [3]) and no more than 100 nM in experiment [2] (setting [5]).

Take `CC[C@]1(c2cccc(-c3cnn(C)c3)c2)C2=C(CC(C)(C)NC2=O)Nc2n[nH]c(C(F)(F)F)c21` [Compound 947871]: the IC50 is 100 to 1000 nM in experiment [1] (setting [3]) and no more than 100 nM in experiment [2] (setting [5]).

With `CC[C@@]1(c2cccc(OC(C)C)c2)C2=C(CC(C)(C)CC2=O)Nc2n[nH]c(C(F)(F)F)c21` [Compound 947872], the results for the IC50 in experiment [1] (setting [7]) and in experiment [2] (setting [8]) were 1000 to 5000 nM and 100 to 1000 nM, respectively.

As for `CCC1(c2cccc(-c3ccncc3F)c2)C2=C(CC(C)(C)NC2=O)Nc2n[nH]cc21` (centres unmarked) [Compound 947874], the results for the IC50 in experiment [1] (setting [3]) and in experiment [2] (setting [5]) were 1000 to 5000 nM and 100 to 1000 nM, respectively.

Consider `CCC1(c2cccc(S(=O)(=O)C(C)C)c2)C2=C(CC(C)(C)NC2=O)Nc2n[nH]c(C)c21` (centres unmarked) [Compound 947876], for which the IC50 was no more than 100 nM in experiment [1] (setting [3]), 100 to 1000 nM in experiment [1] (setting [4]), no more than 100 nM in experiment [2] (setting [5]) and no more than 100 nM in experiment [2] (setting [6]).

Consider `Cc1csc(S(=O)(=O)N2CCC3(CC2)C2=C(CC(C)(C)CC2=O)Nc2n[nH]cc23)n1` [Compound 947897], for which the IC50 in experiment [1] (setting [7]) and in experiment [2] (setting [8]) was no more than 100 nM in each case.

For `Cn1cc(S(=O)(=O)N2CCC3(CC2)C2=C(CC(C)(C)CC2=O)Nc2n[nH]cc23)nn1` [Compound 947898], the values for the IC50 in experiment [1] (setting [7]) and in experiment [2] (setting [8]) were 100 to 1000 nM and no more than 100 nM, respectively.

Consider `Cc1ncc(S(=O)(=O)N2CCC3(CC2)C2=C(CC(C)(C)CC2=O)Nc2n[nH]cc23)s1` [Compound 947899], for which the IC50 in experiment [1] (setting [7]) and in experiment [2] (setting [8]) was no more than 100 nM each time.

As to `CC1(C)CC(=O)C2=C(C1)Nc1n[nH]cc1C21CCN(S(=O)(=O)c2ccc3c(c2)OCCO3)CC1` [Compound 947900], the IC50 in experiment [1] (setting [7]) and in experiment [2] (setting [8]) was no more than 100 nM throughout.

Turning to `CC1(C)CC(=O)C2=C(C1)Nc1n[nH]cc1C21CCN(S(=O)(=O)c2cccc3ccncc23)CC1` [Compound 947901], the IC50 in experiment [1] (setting [7]) and in experiment [2] (setting [8]) was no more than 100 nM throughout.

For `CC1(C)CC(=O)C2=C(C1)Nc1n[nH]cc1C21CCN(S(=O)(=O)c2ccc(C(F)(F)F)cn2)CC1` [Compound 947902], the IC50 in experiment [1] (setting [7]) and in experiment [2] (setting [8]) was no more than 100 nM in each case.

Take `CC1(C)CC(=O)C2=C(C1)Nc1n[nH]cc1C21CCN(S(=O)(=O)c2cnn(CCF)c2)CC1` [Compound 947903]: the IC50 in experiment [1] (setting [7]) and in experiment [2] (setting [8]) was no more than 100 nM each time.

`CC1(C)CC(=O)C2=C(C1)Nc1n[nH]cc1C21CCN(S(=O)(=O)c2cnn(-c3ccccc3)c2)CC1` [Compound 947904]: the IC50 in experiment [1] (setting [7]) and in experiment [2] (setting [8]) was no more than 100 nM throughout.

`CCC1(c2cccc(-c3ccnn3C)c2)C2=C(CC(C)(COC)NC2=O)Nc2n[nH]cc21` (centres unmarked) [Compound 947905]: the figures for the IC50 in experiment [1] (setting [3]) and in experiment [2] (setting [5]) were 100 to 1000 nM and no more than 100 nM, respectively.

On to `CCC1(c2cccc(-c3ccnn3C)c2)C2=C(CC(C)(COC)NC2=O)Nc2n[nH]cc21` (centres unmarked) [Compound 947907], for which the IC50 in experiment [1] (setting [3]) is greater than 5000 nM; in experiment [2] (setting [5]), 1000 to 5000 nM.

For the molecule `CC[C@@]1(c2cccc(-c3ccnn3C)c2)C2=C(C[C@@](C)(COC)NC2=O)Nc2n[nH]cc21` [Compound 947908], the IC50 is greater than 5000 nM in experiment [1] (setting [3]) and 1000 to 5000 nM in experiment [2] (setting [5]).

Take `CC[C@]1(c2cccc(-c3ccncc3C)c2)C2=C(C[C@@]3(CCCOC3)NC2=O)Nc2n[nH]cc21` [Compound 947910]: the IC50 in experiment [1] (setting [3]) and in experiment [2] (setting [5]) was no more than 100 nM each time.

As for `CC[C@@]1(c2cccc(-c3ccncc3C)c2)C2=C(C[C@@]3(CCCOC3)NC2=O)Nc2n[nH]cc21` [Compound 947911], the IC50 in experiment [1] (setting [3]) and in experiment [2] (setting [5]) was no more than 100 nM each time.

With `CCC1(c2cccc(-c3ccnn3C)c2)C2=C(CC3(CCOC3)NC2=O)Nc2n[nH]cc21` (centres unmarked) [Compound 948014], the IC50 is greater than 5000 nM in experiment [1] (setting [3]) and 100 to 1000 nM in experiment [2] (setting [5]).
